In test [1] the test system is CD8+ T cells from HLA-A2+ normal donors or HLA-A2+ melanoma patients. Kind of test: In vitro sensitization of human CD8+ T cells with TASA peptide-pulsed autologous DC, IFN-γ ELISA against peptide-pulsed T2 cells. Type of test: cell-based. Put shortly:
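Autologous DC pulsed with 1 μM each TASA peptide pool for 4 h, then used at 10:1 T cell:DC to stimulate CD8+ T cells: twice weekly for normal donors (analysed day 12), once for melanoma patients (day 5). Responders cultured 24 h at 5:1 with T2 cells pulsed with 1 μM peptide or control; IFN-γ measured by ELISA.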

Test [2] has as its system tumor-associated pericytes and VEC. Briefly: Day 60 splenic CD8+ T cell IFN-γ response in mice cured of B16 by vaccination. Type of test: cell-based, HHD mice. The settings on record: 60 days after tumor inoculation, IFN-γ ELISA (FIG. 12). An excerpt:
HHD mice bearing established day seven B16 melanomas were therapeutically vaccinated with peptides derived from the TASA DLK1 or RGS5 as described in FIG. 11B. Tumors regressed to a non-detectable level over the next two weeks. Sixty days after tumor inoculation, CD8^+ T cells were MACS-isolated from the spleens of these animals and evaluated for IFN-γ production (by ELISA) in response to pericytes and VEC (flow-sorted from day 19 untreated B16 tumors or tumor-uninvolved kidneys of B16-bearing HHD mice), as well as, HLA-A2^+ T2 cells (control or pulsed with the indicated peptides). *p<0.05 versus anti-class I mAb blockade (when evaluating responses against pericytes, VEC or B16 tumor cells) or T2 cells only (when evaluating anti-peptide responses). […]
Evaluation of Specific CD8^+ T Cell Responses in HHD Mice. MACS (Miltenyi Biotec) CD8^+ splenocytes were harvested (from 3 mice/group) 7 days after the second round of DC-based vaccination (i.e. day 21 after tumor inoculation) and analyzed for reactivity against unpulsed T2 cells, TBVA peptide-pulsed T2 cells, or day 19 (flow-sorted) B16-derived PDGFRβ^+CD31^negH-2K^b(neg) pericytes or PDGFRβ^negCD31^+H-2K^b(neg) VEC isolated as previously described (Zhao et al., Mol Ther., 19:805-814, 2011). […] After 48 h, supernatants were analyzed for mIFN-γ content by specific ELISA (BD-Biosciences; lower detection limit=31.3 pg/ml). […]

In the case of “EphA2: EphA2-derived peptide 883-891 pulsed onto DC or DC.IL12 (TLADFDPRV; listed as Homo sapiens)”, the “Specific CD8+ T cell Production of IFN-γ in Response to TASA” value (“Specific CD8+ T cell Production of IFN-γ” for short) in test [1] (donor Mel1, melanoma patient) is “+ (Human responses were designated as + if T cell reactivity against T2 cells presenting the indicated peptide (IFN-γ ELISA) was >30 pg/ml and more than 2 fold higher than reactivity versus T2 cells pulsed with the negative control HIV-nef190-198 peptide)”; in test [1] (donor Mel2, melanoma patient), “+ (Human responses were designated as + if T cell reactivity against T2 cells presenting the indicated peptide (IFN-γ ELISA) was >30 pg/ml and more than 2 fold higher than reactivity versus T2 cells pulsed with the negative control HIV-nef190-198 peptide)”; in test [1] (donor Mel3, melanoma patient), “+ (Human responses were designated as + if T cell reactivity against T2 cells presenting the indicated peptide (IFN-γ ELISA) was >30 pg/ml and more than 2 fold higher than reactivity versus T2 cells pulsed with the negative control HIV-nef190-198 peptide)”; in test [1] (donor Mel4, melanoma patient) it was “+ (Human responses were designated as + if T cell reactivity against T2 cells presenting the indicated peptide (IFN-γ ELISA) was >30 pg/ml and more than 2 fold higher than reactivity versus T2 cells pulsed with the negative control HIV-nef190-198 peptide)”; in test [1] (donor Mel6, melanoma patient) it was “+ (Human responses were designated as + if T cell reactivity against T2 cells presenting the indicated peptide (IFN-γ ELISA) was >30 pg/ml and more than 2 fold higher than reactivity versus T2 cells pulsed with the negative control HIV-nef190-198 peptide)”; in test [1] (donor Mel9, melanoma patient), “+ (Human responses were designated as + if T cell reactivity against T2 cells presenting the indicated peptide (IFN-γ ELISA) was >30 pg/ml and more than 2 fold higher than reactivity versus T2 cells pulsed with the negative control HIV-nef190-198 peptide)”. Moreover, the “Specific CD8+ T cell Production of IFN-γ” value in test [1] (donor ND3, normal donor) was “+ (Human responses were designated as + if T cell reactivity against T2 cells presenting the indicated peptide (IFN-γ ELISA) was >30 pg/ml and more than 2 fold higher than reactivity versus T2 cells pulsed with the negative control HIV-nef190-198 peptide)”; in test [1] (donor ND5, normal donor), “+ (Human responses were designated as + if T cell reactivity against T2 cells presenting the indicated peptide (IFN-γ ELISA) was >30 pg/ml and more than 2 fold higher than reactivity versus T2 cells pulsed with the negative control HIV-nef190-198 peptide)”.

Consider LAALPHSCL (listed as Homo sapiens), for which the “Tc1 recognition of tumor pericytes/VEC by splenic CD8+ T cells of cured mice” value in test [2] is reported as “clear Tc1 recognition of tumor (but not tumor-uninvolved kidney) pericytes”. Moreover, the “Specific CD8+ T Cell Response, HLA-A2+ Normal Donors (of 8)” value in test [1] (number of responding donors of 8, response = IFN-γ >30 pg/ml and >2 fold HIV-nef control) is 0. The “Specific CD8+ T Cell Response, HLA-A2+ Melanoma Patients (of 10)” value in test [1] (number of responding patients of 10, response = IFN-γ >30 pg/ml and >2 fold HIV-nef control) is reported as 5.

Regarding “RGS5: RGS5-derived peptide 5-13 pulsed onto DC or DC.IL12 (LAALPHSCL; listed as Homo sapiens)”, the “Specific CD8+ T cell Production of IFN-γ” value in test [1] (donor Mel1, melanoma patient) was “+ (Human responses were designated as + if T cell reactivity against T2 cells presenting the indicated peptide (IFN-γ ELISA) was >30 pg/ml and more than 2 fold higher than reactivity versus T2 cells pulsed with the negative control HIV-nef190-198 peptide)”; in test [1] (donor Mel2, melanoma patient), “+ (Human responses were designated as + if T cell reactivity against T2 cells presenting the indicated peptide (IFN-γ ELISA) was >30 pg/ml and more than 2 fold higher than reactivity versus T2 cells pulsed with the negative control HIV-nef190-198 peptide)”; in test [1] (donor Mel4, melanoma patient), “+ (Human responses were designated as + if T cell reactivity against T2 cells presenting the indicated peptide (IFN-γ ELISA) was >30 pg/ml and more than 2 fold higher than reactivity versus T2 cells pulsed with the negative control HIV-nef190-198 peptide)”; in test [1] (donor Mel6, melanoma patient), “+ (Human responses were designated as + if T cell reactivity against T2 cells presenting the indicated peptide (IFN-γ ELISA) was >30 pg/ml and more than 2 fold higher than reactivity versus T2 cells pulsed with the negative control HIV-nef190-198 peptide)”; in test [1] (donor Mel8, melanoma patient) it was “+ (Human responses were designated as + if T cell reactivity against T2 cells presenting the indicated peptide (IFN-γ ELISA) was >30 pg/ml and more than 2 fold higher than reactivity versus T2 cells pulsed with the negative control HIV-nef190-198 peptide)”.

“TEM1: TEM1-derived peptide 691-700 pulsed onto DC or DC.IL12 (LLVPTCVFLV; listed as Homo sapiens)”: the “Specific CD8+ T cell Production of IFN-γ” value is “+ (Human responses were designated as + if T cell reactivity against T2 cells presenting the indicated peptide (IFN-γ ELISA) was >30 pg/ml and more than 2 fold higher than reactivity versus T2 cells pulsed with the negative control HIV-nef190-198 peptide)” in test [1] (donor Mel1, melanoma patient); “+ (Human responses were designated as + if T cell reactivity against T2 cells presenting the indicated peptide (IFN-γ ELISA) was >30 pg/ml and more than 2 fold higher than reactivity versus T2 cells pulsed with the negative control HIV-nef190-198 peptide)” in test [1] (donor Mel4, melanoma patient); “+ (Human responses were designated as + if T cell reactivity against T2 cells presenting the indicated peptide (IFN-γ ELISA) was >30 pg/ml and more than 2 fold higher than reactivity versus T2 cells pulsed with the negative control HIV-nef190-198 peptide)” in test [1] (donor Mel7, melanoma patient); “+ (Human responses were designated as + if T cell reactivity against T2 cells presenting the indicated peptide (IFN-γ ELISA) was >30 pg/ml and more than 2 fold higher than reactivity versus T2 cells pulsed with the negative control HIV-nef190-198 peptide)” in test [1] (donor Mel8, melanoma patient); “+ (Human responses were designated as + if T cell reactivity against T2 cells presenting the indicated peptide (IFN-γ ELISA) was >30 pg/ml and more than 2 fold higher than reactivity versus T2 cells pulsed with the negative control HIV-nef190-198 peptide)” in test [1] (donor ND1, normal donor); “+ (Human responses were designated as + if T cell reactivity against T2 cells presenting the indicated peptide (IFN-γ ELISA) was >30 pg/ml and more than 2 fold higher than reactivity versus T2 cells pulsed with the negative control HIV-nef190-198 peptide)” in test [1] (donor ND2, normal donor). In addition, the “Specific CD8+ T cell Production of IFN-γ” value in test [1] (donor ND3, normal donor) is “+ (Human responses were designated as + if T cell reactivity against T2 cells presenting the indicated peptide (IFN-γ ELISA) was >30 pg/ml and more than 2 fold higher than reactivity versus T2 cells pulsed with the negative control HIV-nef190-198 peptide)”; in test [1] (donor ND5, normal donor), “+ (Human responses were designated as + if T cell reactivity against T2 cells presenting the indicated peptide (IFN-γ ELISA) was >30 pg/ml and more than 2 fold higher than reactivity versus T2 cells pulsed with the negative control HIV-nef190-198 peptide)”.

For the origin of these results see US9937250B2, “Immunogenic tumor associated stromal cell antigen peptides and methods of their use” (University of Pittsburgh—Of the Commonwealth System of …, priority 2011, dated 2018).
